Series [1] can be described thus: Pharmacokinetics after IV or oral dosing in mice. On the procedure: (§1) Groups of rodents were dosed either intravenously or orally in order to determine certain pharmacokinetic properties, including oral bioavailability and half-life. Bioavailability was determined by comparing plasma exposure following IV dosing in a [19% hydroxypropyl beta-cyclodextrin/5% DMSO in saline] formulation with plasma exposure following dosing by oral gavage in a 0.5% methyl cellulose formulation.

Series [2] can be described thus: in vivo. On the procedure:
as §1

The nature of series [3]: Pharmacokinetics in rodents, plasma and brain (species not specified). On the procedure:
as §1

Series [4] deals with laboratory rodents. From the text:
The resident-intruder model is an established preclinical model of aggression and agitation, and allows spontaneous and natural expression of both offensive aggression/agitation and defensive behavior in laboratory rodents in a semi natural laboratory setting. […] The latency to attack and the number of attacks are measures of agitation.

Series [5] concerns Mice. The settings on record: for Inhibition of distance travelled: 30-minute session. How it is done: Sedation is assessed in the Locomotor Activity (LMA) model. Mice are placed in a novel chamber and their exploratory activity during a 30-minute session is measured as distance traveled.
For series [6], the system named is 7 different human CYP enzymes. The series is described as follows: Metabolism by panel of human recombinant CYP enzymes, % compound remaining. The note with it: all incubations (7 CYPs); 2 µM; up to 60 min; NADPH.
Series [7] deals with CYP2B6 (Homo sapiens, UniProt P20813). The settings on record: recombinant enzyme, 1 h, 2 µM.
Chain of CYP2B6 (P20813 whole entry): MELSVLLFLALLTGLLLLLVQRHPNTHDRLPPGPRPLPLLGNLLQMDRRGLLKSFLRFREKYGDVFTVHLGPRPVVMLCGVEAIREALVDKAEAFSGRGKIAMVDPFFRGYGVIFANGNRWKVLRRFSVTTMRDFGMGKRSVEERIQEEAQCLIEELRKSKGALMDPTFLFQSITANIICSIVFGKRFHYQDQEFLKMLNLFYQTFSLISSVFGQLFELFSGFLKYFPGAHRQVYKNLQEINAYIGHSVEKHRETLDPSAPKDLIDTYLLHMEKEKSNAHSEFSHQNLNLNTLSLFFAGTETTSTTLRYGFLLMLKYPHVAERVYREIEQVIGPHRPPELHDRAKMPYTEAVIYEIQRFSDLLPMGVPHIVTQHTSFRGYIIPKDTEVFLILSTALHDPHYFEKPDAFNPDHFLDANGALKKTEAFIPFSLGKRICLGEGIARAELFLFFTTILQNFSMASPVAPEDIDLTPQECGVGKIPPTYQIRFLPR
Series [8] deals with CYP2C8 (Homo sapiens, UniProt P10632). The note with it: recombinant enzyme, 1 h, 2 µM.
Chain of CYP2C8 (P10632 whole entry): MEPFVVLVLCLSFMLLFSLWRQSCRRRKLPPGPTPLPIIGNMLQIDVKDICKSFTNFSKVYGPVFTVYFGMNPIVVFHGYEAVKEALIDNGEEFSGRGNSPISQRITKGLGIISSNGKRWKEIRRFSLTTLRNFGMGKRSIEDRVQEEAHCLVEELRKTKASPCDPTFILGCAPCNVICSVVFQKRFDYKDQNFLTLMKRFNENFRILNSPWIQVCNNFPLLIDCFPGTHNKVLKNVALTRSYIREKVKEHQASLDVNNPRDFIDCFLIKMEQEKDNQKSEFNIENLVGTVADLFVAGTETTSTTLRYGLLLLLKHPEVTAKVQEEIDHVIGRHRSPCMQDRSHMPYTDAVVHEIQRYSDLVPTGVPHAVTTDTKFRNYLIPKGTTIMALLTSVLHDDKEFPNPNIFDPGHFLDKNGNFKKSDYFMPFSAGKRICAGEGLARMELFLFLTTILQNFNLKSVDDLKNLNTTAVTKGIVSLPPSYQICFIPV
Series [9] addresses CYP2C19 (Homo sapiens, UniProt P33261). The note with it: recombinant enzyme, 1 h, 2 µM.
The target of series [10] is CYP2D6 (Homo sapiens, UniProt P10635). The settings on record: recombinant enzyme, 1 h, 2 µM.
Chain of CYP2D6 (P10635 whole entry): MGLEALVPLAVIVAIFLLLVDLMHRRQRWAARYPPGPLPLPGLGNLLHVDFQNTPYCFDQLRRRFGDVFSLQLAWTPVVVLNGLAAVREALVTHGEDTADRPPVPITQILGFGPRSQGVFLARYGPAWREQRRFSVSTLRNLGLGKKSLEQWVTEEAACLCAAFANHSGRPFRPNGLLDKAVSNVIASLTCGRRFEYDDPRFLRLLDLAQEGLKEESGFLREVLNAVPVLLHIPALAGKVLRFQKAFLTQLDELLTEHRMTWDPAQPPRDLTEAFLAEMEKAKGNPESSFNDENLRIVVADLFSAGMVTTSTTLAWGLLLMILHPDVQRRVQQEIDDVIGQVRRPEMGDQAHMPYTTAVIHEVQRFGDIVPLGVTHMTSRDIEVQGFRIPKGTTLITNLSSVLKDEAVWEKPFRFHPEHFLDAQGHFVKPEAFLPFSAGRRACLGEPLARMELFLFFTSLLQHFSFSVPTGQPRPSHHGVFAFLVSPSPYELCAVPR
Series [11] deals with CYP3A4 (Homo sapiens, UniProt P08684). The settings on record: recombinant enzyme, 1 h, 2 µM.
Chain of CYP3A4 (P08684 whole entry): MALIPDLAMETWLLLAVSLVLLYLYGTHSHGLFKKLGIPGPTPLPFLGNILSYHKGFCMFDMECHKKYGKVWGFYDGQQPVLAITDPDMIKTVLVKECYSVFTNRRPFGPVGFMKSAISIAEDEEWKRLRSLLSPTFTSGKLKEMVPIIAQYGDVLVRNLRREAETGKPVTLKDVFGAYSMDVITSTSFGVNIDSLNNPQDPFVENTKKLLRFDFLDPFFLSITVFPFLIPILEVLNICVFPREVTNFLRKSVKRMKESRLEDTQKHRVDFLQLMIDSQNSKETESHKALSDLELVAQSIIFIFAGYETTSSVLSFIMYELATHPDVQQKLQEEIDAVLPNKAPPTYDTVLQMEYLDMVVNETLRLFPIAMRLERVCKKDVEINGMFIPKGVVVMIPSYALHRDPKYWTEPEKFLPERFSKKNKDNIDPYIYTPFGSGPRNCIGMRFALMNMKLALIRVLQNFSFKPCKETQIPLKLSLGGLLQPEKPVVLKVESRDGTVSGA

Like-named read-outs stand apart in the source and are kept apart here.

Chain of CYP2C19 (P33261 whole entry): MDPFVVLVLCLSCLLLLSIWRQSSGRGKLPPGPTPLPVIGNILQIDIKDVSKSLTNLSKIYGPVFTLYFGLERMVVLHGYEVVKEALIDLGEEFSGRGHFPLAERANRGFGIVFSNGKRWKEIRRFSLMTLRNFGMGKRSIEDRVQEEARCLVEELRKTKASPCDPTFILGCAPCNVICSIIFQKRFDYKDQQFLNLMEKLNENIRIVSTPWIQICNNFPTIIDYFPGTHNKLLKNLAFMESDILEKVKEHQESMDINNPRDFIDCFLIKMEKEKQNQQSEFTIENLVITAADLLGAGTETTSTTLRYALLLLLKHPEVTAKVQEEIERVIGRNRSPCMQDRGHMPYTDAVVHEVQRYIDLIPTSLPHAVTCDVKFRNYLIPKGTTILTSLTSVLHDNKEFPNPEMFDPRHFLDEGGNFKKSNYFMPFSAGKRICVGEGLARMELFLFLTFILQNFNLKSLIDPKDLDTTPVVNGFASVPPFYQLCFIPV

For the compound `Cc1c(CO)cccc1[C@H](C)c1c[nH]cn1`, the “Time to maximum plasma concentration” value in series [1] (mice) was no more than 10 min; in [2] (rats), no more than 17 min. Further, the bioavailability in series [1] (mouse, plasma, oral) is no more than 51%; in series [2] (rat, in vivo), no more than 34%. Also, the “Mean decrease of levels in plasma and brain” value in series [3] (between 2 and 8 hrs) is recorded as less than 2 fold. In addition, the “Time to achieve pharmacological concentrations in the brain” value in series [3] (brain) is given as no more than 30 minutes. Moreover, the half-life in series [3] (plasma, po) is 4.2 to 7 h. In series [3] (rodents (mice and rats), plasma, oral), the “Half-life relative to dexmedetomidine (longer)” value is 2- to 4 fold. Moreover, the “Activity in resident-intruder model” value in series [4] (1 mg/kg) is reported as “minimal activity”. The “Sedation in LMA model” value in series [5] (1 mg/kg) was “minimally sedating”. Also, the entries for the “Inhibition of distance travelled” value in series [5] (2 mg/kg) and in [5] (3 mg/kg) were “about 25%” and less than 50%, respectively. In addition, in series [5] (compared with dexmedetomidine), the “Maximum achievable level of activity in the LMA model” value is “less than the maximum achievable level of activity with dexmedetomidine”. Further, the “Concentration as % of the starting concentration” value in series [6] is on record as greater than 90%.
`Cc1c(CO)cccc1[C@@H](C)c1c[nH]cn1` [(R)-(3-(1-(1H-imidazol-4-yl)ethyl)-2-methylphenyl)methanol] returned a bioavailability in [2] (rat, in vivo, po) of 7%.
In the case of `Cc1cccc([C@H](C)c2cnc[nH]2)c1C` [dexmedetomidine], in [2] (rat, in vivo, po), the bioavailability was determined as 8.6%. The same compound showed a half-life in [2] (rat, in vivo, po) of 2 h. In [4] (0.2 mg/kg), this compound gave an Inhibition of attacks of 20%. Moreover, the “% of compound remaining” value is 28% in series [7]; 84% in series [8]; 74% in series [9]; 7% in [10]; 89% in [11].

One may read the bioavailability as the share of a dose that reaches the circulation, judged against a reference dose that is usually intravenous. A high value points to much systemic uptake. For orientation: half-life means the time needed for the level to fall by half in the phase considered.

(Values after US20260207559A1, “(S)-(3-(1-(1H-IMIDAZOL-4-YL)ETHYL)-2-METHYLPHENYL)METHANOL FOR TREATMENT OF AGITATION” (Alceptor Therapeutics, Inc., priority 2022, published 2026).)
